Results published in patent EP4722358A1 (AJOU UNIVERSITY INDUSTRY-ACADEMIC COOPERATION FOUNDATION, priority 2023, dated 2024).

How the values were obtained:
Experiment in all cases: Enzymatic reaction rate with glycerol (MBTH assay)
Type in all cases: biochemical
[1] = system: Klebsiella pneumoniae fused glycerol dehydratase fGDHt variant A177M/L113W(α/β); settings: substrate glycerol, MBTH assay 5 minutes, deoxygenated 35 mM phosphate buffer (pH 8.0), 2 µM coenzyme B12
Protocol: (§1) The activities of the wild-type and variant enzymes were measured at 25°C using 3-methyl-2-benzothiazolinone hydrazone (MBTH). To eliminate oxygen inactivation, the enzymes were incubated for 5 minutes in 35 mM phosphate buffer (pH 8.0) stirred with a negative pressure pump. The reaction was initiated by the addition of glycerol. The absorbance measured at 670 nm of the variant was compared with that of the wild-type fGDHt to determine the relative substrate activity (FIG. 10). The MBTH assay was performed as follows:
(§2) The reaction was then initiated by adding glycerol, the substrate to the assay mixture. The reaction was performed for 5 minutes and the reaction was terminated by adding 12 mg/mL MBTH and 0.1 M potassium citrate buffer (pH 3.6). Five minutes after the reaction was terminated, FeCl3 was added thereto and the reaction was performed for 15 minutes. The absorbance was measured at 670 nm.
(§3) Km and Kcat were calculated using the following Equation (Michaelis-Menten equation): v = (d[P])/(dt) = Vmax ([S])/(KM + [S]) = kcat [E]0 ([S])/(KM + [S]) [formula]
(§4) wherein Km is the Michaelis constant and Kcat is the enzyme turnover number.

[2] = system: Klebsiella pneumoniae fused glycerol dehydratase fGDHt variant A177M/L113W/M158W(α/β/β); settings: substrate glycerol, MBTH assay 5 minutes, deoxygenated 35 mM phosphate buffer (pH 8.0), 2 µM coenzyme B12
Protocol: as §1, §2, §3, §4

[3] = system: Klebsiella pneumoniae fused glycerol dehydratase fGDHt variant A177M(α); settings: substrate glycerol, MBTH assay 5 minutes, deoxygenated 35 mM phosphate buffer (pH 8.0), 2 µM coenzyme B12
Protocol: as §1, §2, §3, §4

[4] = system: Klebsiella pneumoniae fused glycerol dehydratase fGDHt variant L113W(β); settings: substrate glycerol, MBTH assay 5 minutes, deoxygenated 35 mM phosphate buffer (pH 8.0), 2 µM coenzyme B12
Protocol: as §1, §2, §3, §4

[5] = system: Klebsiella pneumoniae fused glycerol dehydratase fGDHt variant A177M/M158W(α/β); settings: substrate glycerol
Protocol: as §1, §2, §3, §4

[6] = system: Klebsiella pneumoniae fused glycerol dehydratase fGDHt variant L113F(β); settings: substrate glycerol
Protocol: as §1, §2, §3, §4

[7] = system: Klebsiella pneumoniae fused glycerol dehydratase fGDHt variant M158W(β); settings: substrate glycerol, MBTH assay 5 minutes, deoxygenated 35 mM phosphate buffer (pH 8.0), 2 µM coenzyme B12
Protocol: as §1, §2, §3, §4

[8] = system: Klebsiella pneumoniae glycerol dehydratase, fGDHt (alpha-beta fused subunit, stop codon TAA changed to glutamine CAA), SEQ ID NO: 4; settings: substrate glycerol, MBTH assay 5 minutes, deoxygenated 35 mM phosphate buffer (pH 8.0), 2 µM coenzyme B12
Protocol: as §1, §2, §3, §4

[9] = FGDHt(A177M/M158W(α/β)), MBTH assay 5 minutes, deoxygenated 35 mM phosphate buffer (pH 8.0), 2 µM coenzyme B12
[10] = fGDHt (L113F(β)), MBTH assay 5 minutes, deoxygenated 35 mM phosphate buffer (pH 8.0), 2 µM coenzyme B12

## OCC(O)CO [glycerol]
[1]
  Kcat: 31.96 ± 9.42 s⁻¹
[2]
  Kcat: 28.93 ± 2.17 s⁻¹
  Km: 140 ± 40 µM
[3]
  Kcat: 107.48 ± 14.91 s⁻¹
  Km: 360 ± 70 µM
[4]
  Kcat: 31.82 ± 10.99 s⁻¹
  Km: 520 ± 170 µM
[5]; A177M/M158W (α/β) compared with fGDHt
  kcat/Km higher than those of fGDHt: 8%
[5]; [9]
  Kcat: 155.47 ± 13.23 s⁻¹
  Km: 150 ± 40 µM
[6]; L113F (β) compared with fGDHt
  kcat/Km higher than those of fGDHt: 6%
[6]; [10]
  Kcat: 208.62 ± 21.8 s⁻¹
  Km: 240 ± 60 µM
[7]
  Km: 340 ± 50 µM
[8]
  Kcat: 230.28 ± 10.63 s⁻¹
  Km: 270 ± 30 µM
